# Assay results as given in patent publication US20240343762A1, “USE OF PROTON PUMP MODULATOR IN PREPARING REAGENT” (SHANGHAI QUIETD BIOTECHNOLOGY CO. LTD., priority 2021, published 2024).
# Assays:
# SH-SY5Y cells = assay: Rotenone cell model (PD) with immunoblotting of α-synuclein oligomer; assay type: cell-based; conditions: 5 μM rotenone, QD202 at 0.1 μM, 0.2 μM, 0.5 μM and 1 μM, 24 hours
# Description: The rotenone cell model is a commonly used Parkinson's disease (PD) in vitro cell model.
# SH-SY5Y cells are cultured in complete medium composed of high-glucose DMEM and 10% fetal bovine serum, placed in an incubator maintained at 37° C. and 5% carbon dioxide for culture. On the day before the rotenone model is established, cells are passaged from 60 mm dishes to 6-well plates, and QD202 treatment experiments are conducted 24 hours after cell passage.
# After 24 hours of SH-SY5Y culture, the rotenone model is established. A mixed solution containing 5 μM rotenone and various concentrations of QD202 (0, 0.1 μM, 0.2 μM, 0.5 μM, 1 μM, 5 μM, 10 μM) is prepared with complete medium. SH-SY5Y cells are removed from the culture medium, the mixed solution is added and mixed well, and incubated in the incubator for 24 hours.
# After 24 hours of QD202 treatment, the cells are placed on ice, and 200 μL of cell lysis buffer containing protease inhibitors (25 mM Tris-HCL, 150 mM NaCl, 1 mM EDTA, 1% NP40, 5% Glycerol) is added. The cells are collected into the lysis buffer and the collected samples are rotated and lysed at 4° C. for 30 minutes.
# The samples are centrifuged at 4° C. for 10 minutes, and the supernatant is collected. 180 μL of the supernatant is retained and 60 μL of 4×loading buffer is added. […]
# [1] = tested on: APP/PS1 transgenic AD mice; assay: New object recognition test in APP/PS1 transgenic AD mice; assay type: in vivo, mouse; conditions: continuously for 1 week, mice of 10 months old
# Description: A new object recognition test was carried out by an open field box (40×40×35 cm, made of blue opaque plastic) with reference to a behavior test scheme recorded by Leger, M., et al. Object recognition test in mice. Nat Protoc. 8, 2531-2537 (2013). On the first day, mice were put into the open field box to adapt for 10 min. On the second day, each mouse was lightly put in the center of the box, two similar objects (a battery I) were put in the central area and freely explore for 10 min, and then the mice were sent back to feeding cages. After 3 h, the mice were put back to the box again (one battery was replaced with a doll toy which was 10 cm high) for 10 min to carry out a memory retention test. A video was analyzed by Etho Vision XT 14 software, and the time for exploring new/old objects by the mice was recorded. The discrimination index was computed as (Tnovel−Tfamliar)/(Tnovel+Tfamiliar).
# APP/PS1 transgenic mice of 10 months old (purchased from MODEL ORGANISMS) were selected, and equally divided into three groups; the mice were administrated with a PBS buffer solution (group 2), […]
substance,measurement,setting,value
QD202: polypeptide synthesized according to the amino acid sequence as set forth in SEQ ID NO. 1 (YGRKKRRQRRRSPVDVVCS; QD202),increase in α-synuclein oligomer caused by rotenone treatment,SH-SY5Y cells,dose-dependently reduce
same,learning and cognitive functions in new object recognition,"[1]; intragastric, 6.25 mg/kg",obvious improvement of learning and cognitive functions
same,learning and cognitive functions in new object recognition,"[1]; intravenous, 1.25 mg/kg",obvious improvement on learning and cognitive functions
